The record followed here is ChEMBL document CHEMBL1139636, “QSAR analysis of thiazole benzenesulfonamide substituted 3-pyridylethanolamines as beta3-adrenergic receptor agonist” (Bioorg Med Chem Lett, 2005).

A word on the EC50: it is the midpoint of the concentration-response curve. A lower EC50 goes with a more potent agent.

In this assay the target is Beta-3 adrenergic receptor (Homo sapiens, UniProt P13945). The experiment in a line: Effective concentration to stimulate cAMP production in chinese hamster ovary cells expressing cloned human beta-3-adrenergic receptor. The class given is functional, cell-based, Cricetulus griseus.
Chain of Beta-3 adrenergic receptor (P13945 whole entry): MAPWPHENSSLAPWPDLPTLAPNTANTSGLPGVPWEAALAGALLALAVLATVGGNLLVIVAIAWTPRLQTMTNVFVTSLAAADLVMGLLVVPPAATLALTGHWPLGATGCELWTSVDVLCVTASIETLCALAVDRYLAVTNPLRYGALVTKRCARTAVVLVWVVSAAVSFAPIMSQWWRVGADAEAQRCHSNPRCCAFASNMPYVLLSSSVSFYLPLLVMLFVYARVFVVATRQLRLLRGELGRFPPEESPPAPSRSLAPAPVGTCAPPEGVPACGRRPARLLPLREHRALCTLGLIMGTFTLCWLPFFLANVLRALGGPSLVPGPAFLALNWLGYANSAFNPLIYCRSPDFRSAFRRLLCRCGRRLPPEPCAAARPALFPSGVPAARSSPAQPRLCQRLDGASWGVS

In turn, `O=S(=O)(Nc1ccc(CCNC[C@H](O)c2ccccc2)cc1)c1ccc(Cc2nc(-c3ccc4ncccc4c3)cs2)cc1` showed a 50% effective concentration (EC50) of 2.7 nM.
`O=S(=O)(Nc1ccc(CCNC[C@H](O)c2ccccc2)cc1)c1ccc(Cc2nc(-c3ccc(O)cc3)cs2)cc1` yielded an EC50 of 45 nM.
`O=S(=O)(Nc1ccc(CCNC[C@H](O)c2ccccc2)cc1)c1ccc(Cc2nc(-c3ccc(F)c(F)c3)cs2)cc1`: the midpoint of the response, the EC50, lay at 7.1 nM.
As to `O=S(=O)(Nc1ccc(CCNC[C@H](O)c2ccccc2)cc1)c1ccc(Cc2nc(-c3c[nH]c4ccccc34)cs2)cc1`, a half-maximal response (EC50) required 9.1 nM.
As for `CCCCCCCCc1csc(CCc2ccc(S(=O)(=O)Nc3ccc(CCNC[C@H](O)c4ccccc4)cc3)cc2)n1`, the half-maximal effective concentration (EC50) came out at 9.8 nM.
For the compound `O=S(=O)(Nc1ccc(CCNC[C@H](O)c2ccccc2)cc1)c1ccc(Cc2nc(-c3ccccn3)cs2)cc1`, the midpoint of the response, the EC50, lay at 22 nM.
With `O=S(=O)(Nc1ccc(CCNC[C@H](O)c2ccccc2)cc1)c1ccc(Cc2nc(CCC3CCCC3)cs2)cc1` the figure was 26 nM; with `O=S(=O)(Nc1ccc(CCNC[C@H](O)c2ccccc2)cc1)c1ccc(Cc2nc(-c3cc4ccccc4o3)cs2)cc1`, 5 nM; with `O=S(=O)(Nc1ccc(CCNC[C@H](O)c2ccccc2)cc1)c1ccc(Cc2nc(-c3cnc4ccccc4c3)cs2)cc1`, 7.3 nM.
Next, `CCCCCCc1ccc(-c2csc(Cc3ccc(S(=O)(=O)Nc4ccc(CCNC[C@H](O)c5ccccc5)cc4)cc3)n2)cc1`: 1.2 nM; `O=S(=O)(Nc1ccc(CCNC[C@H](O)c2ccccc2)cc1)c1ccc(CCc2nc(Cc3ccc4ccccc4c3)cs2)cc1`: 12 nM.
`O=S(=O)(Nc1ccc(CCNC[C@H](O)c2ccccc2)cc1)c1ccc(Cc2nc(Cc3ccc(F)cc3)cs2)cc1` displayed an EC50 of 6.2 nM.
`CCCCCCCCc1csc(Cc2ccc(S(=O)(=O)Nc3ccc(CCNC[C@H](O)c4ccccc4)cc3)cc2)n1` returned an EC50 of 10 nM.
For the compound `O=S(=O)(Nc1ccc(CCNC[C@H](O)c2ccccc2)cc1)c1ccc(Cc2nc(CCc3ccccc3)cs2)cc1`, the concentration giving a half-maximal response (EC50) was 33 nM.
`O=S(=O)(Nc1ccc(CCNC[C@H](O)c2ccccc2)cc1)c1ccc(Cc2nc(-c3cc4ccccc4s3)cs2)cc1`: a half-maximal response (EC50) required 5.8 nM.
Turning to `O=S(=O)(Nc1ccc(CCNC[C@H](O)c2ccccc2)cc1)c1ccc(Cc2nc(-c3ccc(F)cc3)cs2)cc1`, the half-maximal effective concentration (EC50) was found to be 9.5 nM.
With `O=S(=O)(Nc1ccc(CCNC[C@H](O)c2ccccc2)cc1)c1ccc(Cc2nc(Cc3ccc4ccccc4c3)cs2)cc1`, the EC50 is 33 nM.
In turn, `CC(C)(C)c1ccc(-c2csc(Cc3ccc(S(=O)(=O)Nc4ccc(CCNC[C@H](O)c5ccccc5)cc4)cc3)n2)cc1` came in with an EC50 of 2.4 nM.
For `CC(=O)Nc1ccc(-c2csc(Cc3ccc(S(=O)(=O)Nc4ccc(CCNC[C@H](O)c5ccccc5)cc4)cc3)n2)cc1`, the EC50 is 45 nM.
Next, `O=S(=O)(Nc1ccc(CCNC[C@H](O)c2ccccc2)cc1)c1ccc(Cc2nc(-c3ccc4ccccc4c3)cs2)cc1`: 2 nM; `O=S(=O)(Nc1ccc(CCNC[C@H](O)c2ccccc2)cc1)c1ccc(Cc2nc(-c3cccnc3)cs2)cc1`: 40 nM; `CC(=O)NCCCCCc1csc(Cc2ccc(S(=O)(=O)Nc3ccc(CCNC[C@H](O)c4ccccc4)cc3)cc2)n1`: 50 nM.
In turn, `CC/C=C/CC/C=C/c1csc(Cc2ccc(S(=O)(=O)Nc3ccc(CCNC[C@H](O)c4ccccc4)cc3)cc2)n1` displayed a half-maximal effective concentration (EC50) of 51 nM.
